Our source for the kcat/Km and Km values is patent US20150152395A1, “CHIMERIC LUCIFERASES” (Connecticut College, priority 2012, published 2015).

Structures are written as SMILES.

Assay in all cases: Steady-state kinetic constants, bioluminescence activity
Experiment [1] addresses T1, Photinus pyralis luciferase PpyWT variant Ppy14, Ala450Pro/Ile457Val/Leu472Val/Asp475Ser/Asp476Glu/Ala482Gly/Leu487Met/His489Lys/Ala503Asn/Thr507Val/Thr508Asn/A (Photinus pyralis, UniProt P08659, A450P/A482G/A503N/A509H/D475S/D476E/H489K/I457V/K511R/L472V/L487M/T507V/T508N/V517R).
T1 construct: N-terminal GPLGS; pGEX-6P-2 GST fusion (tag cleaved), E. coli BL21
The experiment is classed as biochemical.
Experimental: (§1) Reactions were initiated by injection of solutions of the substrate being maintained at saturating concentration. Kinetic constants were determined using a nonlinear least squares method of the Enzyme Kinetics Pro software (SynTex), which fits data from the Michalis-Menten equation to a rectangular hyperbola. The corresponding kcat values were obtained by dividing the Vmax values by the amount (μmol) of each luciferase in the assay mixtures.

Experiment [2] deals with T2, 6×His-PpyWT, Photinus pyralis luciferase PpyWT with N-terminal peptide MRGSHHHHHHGS (SEQ ID NO: 27) in place of GPLGS (Photinus pyralis, UniProt P08659).
T2 construct: pQE-30, E. coli; Ni-NTA purified
T2 sequence (P08659 whole entry): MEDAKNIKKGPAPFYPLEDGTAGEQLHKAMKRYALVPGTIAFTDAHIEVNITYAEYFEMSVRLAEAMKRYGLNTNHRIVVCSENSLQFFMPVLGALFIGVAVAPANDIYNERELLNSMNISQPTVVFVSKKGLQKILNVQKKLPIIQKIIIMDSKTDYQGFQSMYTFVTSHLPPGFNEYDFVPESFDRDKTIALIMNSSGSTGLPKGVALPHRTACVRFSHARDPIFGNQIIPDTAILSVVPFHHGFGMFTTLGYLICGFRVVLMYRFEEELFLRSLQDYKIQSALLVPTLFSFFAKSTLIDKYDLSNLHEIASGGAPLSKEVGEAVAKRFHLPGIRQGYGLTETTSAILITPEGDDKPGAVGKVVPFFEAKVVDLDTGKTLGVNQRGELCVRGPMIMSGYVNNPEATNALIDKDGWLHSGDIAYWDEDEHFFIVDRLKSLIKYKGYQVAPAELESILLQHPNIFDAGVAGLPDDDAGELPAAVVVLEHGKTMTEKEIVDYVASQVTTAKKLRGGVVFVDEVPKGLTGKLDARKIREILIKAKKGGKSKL
In kind it is biochemical.
Experimental: as §1

The target of experiment [3] is LitWT, recombinant Luciola italica luciferase containing Lys547Gly/Met548Gly, SEQ ID NO: 6, with N-terminal peptide GPLGS (Luciola italica, UniProt Q1AG35, K547G/M548G). The conditions noted are these: kcat divided by Mg-ATP Km.
LitWT, recombinant Luciola italica luciferase containing Lys547Gly/Met548Gly, SEQ ID NO: 6, with N-terminal peptide GPLGS, sequence (Q1AG35 1-548 K547G/M548G): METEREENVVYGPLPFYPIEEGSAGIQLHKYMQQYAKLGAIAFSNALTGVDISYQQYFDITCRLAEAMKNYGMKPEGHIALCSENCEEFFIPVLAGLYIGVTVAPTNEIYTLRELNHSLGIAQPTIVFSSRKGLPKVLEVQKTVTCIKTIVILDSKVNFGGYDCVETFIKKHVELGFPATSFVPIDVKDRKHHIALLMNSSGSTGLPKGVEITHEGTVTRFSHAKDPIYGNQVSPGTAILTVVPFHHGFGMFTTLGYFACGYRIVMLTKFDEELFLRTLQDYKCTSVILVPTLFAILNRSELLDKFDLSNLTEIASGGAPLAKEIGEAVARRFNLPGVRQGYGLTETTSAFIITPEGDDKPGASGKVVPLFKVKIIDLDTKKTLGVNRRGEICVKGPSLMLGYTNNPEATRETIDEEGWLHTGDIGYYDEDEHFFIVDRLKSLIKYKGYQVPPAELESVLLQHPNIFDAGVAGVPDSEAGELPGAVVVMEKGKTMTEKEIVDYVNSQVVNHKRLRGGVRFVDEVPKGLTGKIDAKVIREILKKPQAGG
Experimental: as §1
Experiment [4] concerns the target T3, Photinus pyralis luciferase PpyWT variant Ppy19, Ppy14 plus Leu530Ile/Lys534Val/Ile540Lys/Ala542Pro/Lys543Gln (Photinus pyralis, UniProt P08659, A450P/A482G/A503N/A509H/A542P/D475S/D476E/H489K/I457V/I540K/K511R/K534V/K543Q/L472V/L487M/L530I/T507V/T508N/V517R).
T3 construct: N-terminal GPLGS; pGEX-6P-2 GST fusion (tag cleaved), E. coli BL21
The experiment is classed as biochemical.
Experimental: as §1

In experiment [5] the target is T4, Photinus pyralis luciferase variant Ppy WT-TS5/I351V, PpyWT-TS (SEQ ID NO: 22) with Ile457Val/Ala482Gly/His489Lys/Ala503Asn/Lys543Gln/Ile351Val, SEQ ID NO: 12 (Photinus pyralis, UniProt P08659, A215L/A482G/A503N/E354K/F295L/H489K/I232A/I351V/I457V/K543Q/T214A).
T4 construct: N-terminal GPLGS; pGEX-6P-2 GST fusion (tag cleaved), E. coli BL21
T4 sequence (P08659 whole entry T214A/A215L/I232A/F295L/I351V/E354K/I457V/A482G/H489K/A503N/K543Q, the tested form may be a part): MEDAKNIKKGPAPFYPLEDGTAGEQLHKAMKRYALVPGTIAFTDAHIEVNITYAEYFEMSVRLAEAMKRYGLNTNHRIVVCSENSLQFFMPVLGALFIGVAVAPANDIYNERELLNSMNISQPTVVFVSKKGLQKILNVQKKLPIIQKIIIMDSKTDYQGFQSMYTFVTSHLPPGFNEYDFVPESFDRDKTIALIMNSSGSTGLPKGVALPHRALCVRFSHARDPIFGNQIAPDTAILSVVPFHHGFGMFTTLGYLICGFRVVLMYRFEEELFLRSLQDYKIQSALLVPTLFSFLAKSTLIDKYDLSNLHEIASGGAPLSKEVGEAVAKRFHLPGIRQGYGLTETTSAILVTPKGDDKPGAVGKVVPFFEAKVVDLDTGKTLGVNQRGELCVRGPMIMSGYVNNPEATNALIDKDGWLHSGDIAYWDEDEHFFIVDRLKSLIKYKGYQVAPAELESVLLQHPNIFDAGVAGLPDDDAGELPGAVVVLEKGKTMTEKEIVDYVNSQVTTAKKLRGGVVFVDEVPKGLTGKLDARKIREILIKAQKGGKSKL
The experiment is classed as biochemical.
Experimental: as §1

Where [6] appears, read: read-out: Km Mg-ATP, pH 7.8, LH2 saturating.

T1 sequence (P08659 whole entry A450P/I457V/L472V/D475S/D476E/A482G/L487M/H489K/A503N/T507V/T508N/A509H/K511R/V517R, the tested form may be a part): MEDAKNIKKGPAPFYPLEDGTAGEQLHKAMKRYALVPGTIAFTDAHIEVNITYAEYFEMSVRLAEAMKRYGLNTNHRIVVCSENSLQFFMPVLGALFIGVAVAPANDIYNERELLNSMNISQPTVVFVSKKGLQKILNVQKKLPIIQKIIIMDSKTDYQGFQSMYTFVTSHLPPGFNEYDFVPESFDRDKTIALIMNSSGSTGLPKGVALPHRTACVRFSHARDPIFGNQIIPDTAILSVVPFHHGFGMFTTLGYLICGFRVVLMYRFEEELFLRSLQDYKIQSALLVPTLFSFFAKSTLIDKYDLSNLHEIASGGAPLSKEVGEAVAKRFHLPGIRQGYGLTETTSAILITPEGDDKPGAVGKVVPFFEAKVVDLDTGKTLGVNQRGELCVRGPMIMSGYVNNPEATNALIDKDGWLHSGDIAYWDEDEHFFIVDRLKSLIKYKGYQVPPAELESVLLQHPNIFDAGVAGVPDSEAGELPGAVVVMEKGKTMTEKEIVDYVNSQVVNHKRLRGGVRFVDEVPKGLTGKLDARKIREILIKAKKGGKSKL

The term kcat/Km denotes the turnover number divided by the Michaelis constant. Usually Km stands for the concentration of substrate that gives half-maximal velocity. Turning to `Nc1ncnc2c1ncn2[C@@H]1O[C@H](COP(=O)(O)OP(=O)(O)OP(=O)(O)O)[C@@H](O)[C@H]1O` [Mg-ATP], the kcat/Km in experiment [1] (kcat divided by Mg-ATP Km) amounted to 6340 ± 110 M⁻¹ s⁻¹; in experiment [2] (kcat divided by Mg-ATP Km) it was 1930 ± 110 M⁻¹ s⁻¹; in experiment [3], 780 ± 110 M⁻¹ s⁻¹; in experiment [4] (kcat divided by Mg-ATP Km), 5990 ± 110 M⁻¹ s⁻¹; in experiment [5] (kcat divided by Mg-ATP Km), 3160 ± 70 M⁻¹ s⁻¹. The Km in experiment [1] (setting [6]) came out at 41 ± 3 µM; in experiment [2] (pH 7.8, LH2 saturating, read-out: Km Mg-ATP), 93 ± 9 µM; in experiment [4] (setting [6]), 50 ± 5 µM; in experiment [5] (setting [6]), 79 ± 5 µM.
